Measured values reported in US20240424147A1, “PHTHALOCYANINE-LOADED MICELLES FOR THE DIRECT VISUALIZATION OF TUMORS” (THE TRUSTEES OF THE UNIVERSITY OF PENNSYLVANIA, priority 2022, published 2024).

Legend:
[1] = Photothermal heating of micelles in water under 808 nm laser; format: physicochemical; settings: 808 nm laser 0.75 W/cm2, 10 min
Text: FIGS. 1A-1H show the preparation, characterization and uses of the PC dye micelles according to the invention. […] Infrared thermal images of water and NiPC micelle solution under laser irradiation.
(§1) A total of twenty-eight phthalocyanine and nine naphthalocyanine dyes were loaded into polymeric micelles, composed of the amphiphilic diblock copolymer PEGPCL, via oil-in-water emulsions (FIGS. 16A, 16B, 16C). The nanoparticles were characterized by UV-absorption spectroscopy and dynamic light scattering. The photothermal heating potential and photothermal stability of nanoparticles were assessed by irradiating samples using an 808 nm laser for 10 minutes at 0.75 W. Photoacoustic imaging signal was assessed by loading micelles into a phantom submerged in water. The top 5 naphthalocyanines and top 4 phthalocyanines, based on PA and heating properties, were used for in vitro and in vivo studies. The cytotoxicity and photocytotoxicity of the various micelles were assessed with ovarian cancer ID8-luciferase cells and breast cancer 4T1 cells using an MTS cell proliferation assay.
Pc and Nc-loaded micelles (9.4 uM dye concentration) and controls (empty micelles and water) were prepared and then irradiated at 808 nm (0.75 W/cm2) continuously for 10 min; heating of each sample was measured as a function of time. (FIG. 21)

[2] = Photothermal stability, repeated heating and cooling cycles; format: physicochemical; settings: three 10-min heating/cooling cycles, 808 nm, 9.4 uM
Experimental: as §1
Various Pc and Nc-loaded micelles (9.4 uM) were heated multiple times, using a laser (0.75 W/cm2), in 10-min increments. (FIG. 22) The samples were allowed to cool to room temperature between successive rounds.

[3] = free dye; cited from earlier work
[4] = PCs nanoparticles retention study: dialysis against 20 mM sodium cholate; format: physicochemical; settings: 24 h, in words
Experimental: 100 μL of PCs nanoparticles was diluted in 3 mL of 20 mM sodium cholate solution. Dialysis was performed with dialysis tubing (12,000-14,000 MWCO, Fisher) into 500 mL of 20 mM sodium cholate buffer at room temperature. The buffer was changed after 4 hours. The absorbance of the solutions was recorded before and after (24 hours) dialysis to determine dye retention percentage. […] Methylene blue (MB) is the only water-soluble blue dye that is used in this study.
PCs nanoparticles were synthesized using amphiphilic diblock copolymer (PEG-PCL) (FIG. 1A, phthalocyanine dyes used in this study are shown in FIGS. 4A-4F, see methods in Example 1). Due to the hydrophobic nature of PCs, they tend to aggregate in the aqueous medium (intermolecular interaction (π-π stacking)). […] The size of nanoparticles was determined with dynamic light scattering (DLS). […] The release of the PCs from PCs loaded micelles was assessed in sodium cholate buffer by monitoring leakage of PCs dyes as a function of time. […]
100 μL of PCs nanoparticles was diluted in 3 mL of 20 mM sodium cholate solution. […] The absorbance of the solutions was recorded before and after (24 hours) dialysis to determine dye retention percentage.

[5] = test system: 4T1 triple-negative breast flank tumors; test: Direct visualization of 4T1 flank tumors after injection of micelles (SBR by ImageJ); format: in vivo, BALB/c mice; settings: 10 mg/kg intravenous (retro-orbital), 24 h where stated
Experimental: Photographs were quantified using ImageJ. Normalized signal-to-background (SBR) measurements were made using the tumor (i.e., the intensity of the blue color) and its surrounding tissue as background after 24 h of PCs loaded micelles (10 mg/kg) and MB (10 mg/kg) intravenous (retro-orbital) injection (n=3).
To identify the PC-loaded micelle formulation that is best able to differentiate tumors from surrounding healthy tissues via direct visualization, BALB/c mice bearing syngeneic 4T1 triple-negative breast flank tumors were injected intravenously with the various micelle formulations (10 mg/kg based on the dye concentration, 24 h before evaluation). […] Normalized signal-to-background (SBR) measurements were calculated in ImageJ using the intensity of the blue color within the tumor and its surrounding tissue, respectively.
4T1 tumor cells (2×10^6 cells in 100 ul) were implanted in the right flank of BALB/c mice (aged 6 weeks). […]
To assess blue nanoparticle accumulation in the breast and spontaneous colorectal mice model, tumors were evaluated visually, and normalized signal-to-background (SBR) was quantitated for each tumor relative to the surrounding tissue by measuring the intensity of blue-green colors via ImageJ. […] Tissues were placed in microscope glass slides, imaged fluorescence in the Cy5 filter (excitation 628-40 nm, emission 692-40 nm), and analyzed via ImageJ. […]

Row | Structure (SMILES) | PTT performance compared with other dyes [1] | heating ability after repeated irradiation [2] | clearance upon injection [3] | release from the dialysis tubing [4] | tumor contrast / dye accumulation by direct visualization [5]
1 | CCCCOc1c2c(c(OCCCC)c3ccccc13)-c1nc-2nc2[n-]c(nc3nc(nc4[n-]c(n1)c1c(OCCCC)c5ccccc5c(OCCCC)c41)-c1c-3c(OCCCC)c3ccccc3c1OCCCC)c1c(OCCCC)c3ccccc3c(OCCCC)c21.[Cu+2] [CuNc Octa, Copper(II) 5,9,14,18,23,27,32,36-octabutoxy-2,3-naphthalocyanine] | outperforms all previously tested Pc/Nc dyes for PTT |  |  |  | 
2 | CC1(C)C(/C=C/C=C/C=C/C=C2\N(CCCCS(=O)(=O)O)c3ccc4ccccc4c3C2(C)C)=[N+](CCCCS(=O)(=O)[O-])c2ccc3ccccc3c21 [ICG, indocyanine green] |  | lost its ability to heat | cleared within minutes upon injection |  | 
3 | CN(C)c1ccc2nc3ccc(=[N+](C)C)cc-3sc2c1 [MB, Methylene blue] |  |  | cleared within minutes upon injection | released entirely | no accumulation was observed
